Measurements reported in the supplement of paper PMC10627819.

Legend:
[1] = system: B. subtilis 168; assay: fitness (endpoint OD595 vs no drug) (fraction); higher = more growth
Summary of the method: (§1)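 Bacterial growth was followed in 384-well plates seeded at OD595 0.01, with 30 µl per well, or 55 µl for S. pneumoniae, in TSB, LB Lennox or CY at 37 °C. OD595 was read every 30 min for 14 h, and each reading had the first reading subtracted as background. Fitness is the background-corrected optical density at entry into stationary phase divided by the robust mean of the no-drug control wells. This ratio is capped at 1.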

[2] = system: S. aureus Newman; assay: as above
Summary of the method: as §1

[3] = system: S. pneumoniae D39V; assay: as above
Summary of the method: as §1

[4] = system: B. subtilis 168; assay: Bliss interaction score (quartile over a dose matrix) (fitness difference); higher = more antagonism (negative = synergy)
Summary of the method: (§2)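 Each OD595 reading at entry into stationary phase was scaled to the robust mean of the untreated wells on its plate, with a ceiling of 1. These ratios define fitness, and single-drug fitness was inferred from combinations. The Bliss score compares observed fitness with the product-based expectation and is reported as quartiles across all replicate types, technical, biological and donor/recipient.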

[5] = system: S. aureus DSM 20231; assay: as above
Summary of the method: as §2

[6] = system: S. aureus Newman; assay: as above
Summary of the method: as §2

[7] = system: S. pneumoniae D39V; assay: as above
Summary of the method: as §2
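Throughout, for Bliss interaction score (quartile over a dose matrix): first quartile when negative (synergy) and third quartile when positive (antagonism).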

Cc1onc(-c2ccccc2)c1C(=O)N[C@@H]1C(=O)N2[C@@H]1SC(C)(C)[C@@H]2C(=O)O [Oxacillin] + CN[C@@H]1[C@H](O[C@H]2[C@H](O[C@H]3[C@H](O)[C@@H](O)[C@H](N=C(N)N)[C@@H](O)[C@@H]3N=C(N)N)O[C@@H](C)[C@]2(O)C=O)O[C@@H](CO)[C@H](O)[C@H]1O [Streptomycin]
fitness
Details | partner 1 µg/mL | partner 2 µg/mL | partner 4 µg/mL | partner 8 µg/mL
[1], first compound 0.002 µg/mL | – | 0.982 | 0.369 | 0.0333
[1], first compound 0.004 µg/mL | – | 0.941 | 0.208 | 0.0502
[1], first compound 0.008 µg/mL | – | 0.931 | 0.134 | 0.0492
[2], first compound 0.0156 µg/mL | 0.808 | 0.726 | – | –
[2], first compound 0.0312 µg/mL | 0.738 | 0.644 | – | –
[2], first compound 0.0625 µg/mL | 0.606 | 0.531 | – | –
[3], first compound 0.01 µg/mL | – | 0.938 | 0.98 | 0.909
[3], first compound 0.02 µg/mL | – | 0.88 | 0.931 | 0.908
[3], first compound 0.04 µg/mL | – | 0.33 | 0.399 | 0.441

fitness, one replicate
Details | first compound 0.01 µg/mL | first compound 0.02 µg/mL | first compound 0.04 µg/mL | first compound 0.075 µg/mL | first compound 0.15 µg/mL | first compound 0.3 µg/mL
[1], partner 2 µg/mL | – | – | – | 0.534 | 0.0325 | 0.0421
[1], partner 4 µg/mL | – | – | – | 0.0966 | 0.025 | 0.0294
[1], partner 8 µg/mL | – | – | – | 0.0343 | 0.0288 | 0.0352
[3], partner 16 µg/mL | 0.887 | 0.863 | 0.436 | – | – | –

Details | Bliss interaction score
[4] | -0.113
[5] | -0.0653
[6] | -0.0537
[7] | 0.093

C[n+]1ccc(-c2cc[n+](C)cc2)cc1 [Paraquat] + CN(C)c1cc(NC(=O)CNC(C)(C)C)c(O)c2c1C[C@H]1C[C@H]3[C@H](N(C)C)C(O)=C(C(N)=O)C(=O)[C@@]3(O)C(O)=C1C2=O [Tigecycline]
fitness
Details | first compound 1.25 µg/mL | first compound 1.5 µg/mL | first compound 2.5 µg/mL | first compound 3 µg/mL | first compound 5 µg/mL | first compound 6 µg/mL
[1], partner 0.039 µg/mL | 0.982 | – | 0.975 | – | 0.88 | –
[1], partner 0.078 µg/mL | 0.919 | – | 0.957 | – | 0.86 | –
[1], partner 0.156 µg/mL | 0.94 | – | 0.93 | – | 0.84 | –
[2], partner 0.039 µg/mL | 0.905 | – | 0.929 | – | 0.881 | –
[2], partner 0.078 µg/mL | ≥ 1 | – | 0.952 | – | 0.934 | –
[2], partner 0.156 µg/mL | 0.975 | – | 0.925 | – | 0.898 | –
[3], partner 0.65 µg/mL | – | 0.974 | – | 0.967 | – | 0.939
[3], partner 1.3 µg/mL | – | 0.956 | – | 0.986 | – | 0.951
[3], partner 2.6 µg/mL | – | 0.923 | – | 0.9 | – | 0.898

fitness, [1], one replicate
Details | first compound 1.25 µg/mL | first compound 2.5 µg/mL | first compound 5 µg/mL
partner 0.125 µg/mL | ≥ 1 | ≥ 1 | ≥ 1
partner 0.25 µg/mL | ≥ 1 | 0.93 | 0.941
partner 0.5 µg/mL | 0.998 | 0.973 | 0.893

Details | Bliss interaction score
[4] | -0.0331
[5] | 0.0449
[6] | 0.0431
[7] | -0.0568

C[n+]1ccc(-c2cc[n+](C)cc2)cc1 [Paraquat] + CN[C@@H]1[C@H](O[C@H]2[C@H](O[C@H]3[C@H](O)[C@@H](O)[C@H](N=C(N)N)[C@@H](O)[C@@H]3N=C(N)N)O[C@@H](C)[C@]2(O)C=O)O[C@@H](CO)[C@H](O)[C@H]1O [Streptomycin]
fitness
Details | partner 1 µg/mL | partner 2 µg/mL | partner 4 µg/mL | partner 8 µg/mL
[1], first compound 1.25 µg/mL | – | 0.886 | – | 0.0237
[1], first compound 2.5 µg/mL | – | 0.924 | – | 0.0505
[1], first compound 5 µg/mL | – | 0.777 | 0.26 | 0.0406
[2], first compound 1.25 µg/mL | 0.99 | 0.882 | – | –
[2], first compound 2.5 µg/mL | 0.907 | 0.912 | – | –
[2], first compound 5 µg/mL | 0.908 | 0.859 | – | –
[3], first compound 1.5 µg/mL | – | 0.953 | 0.983 | 0.89
[3], first compound 3 µg/mL | – | 0.967 | 0.964 | 0.884
[3], first compound 6 µg/mL | – | 0.946 | 0.916 | 0.866

[3], partner 16 µg/mL, one replicate
Details | fitness
first compound 1.5 µg/mL | 0.865
first compound 3 µg/mL | 0.857
first compound 6 µg/mL | 0.722

Details | Bliss interaction score
[4] | -0.119
[5] | 0.118
[6] | 0.0567
[7] | -0.0799

Cn1c2cccc(=O)c-2nc2ccccc21 [Pyocyanin] + CN(C)c1cc(NC(=O)CNC(C)(C)C)c(O)c2c1C[C@H]1C[C@H]3[C@H](N(C)C)C(O)=C(C(N)=O)C(=O)[C@@]3(O)C(O)=C1C2=O [Tigecycline]
fitness
Details | first compound 0.325 µg/mL | first compound 0.65 µg/mL | first compound 1.25 µg/mL | first compound 1.3 µg/mL | first compound 2.5 µg/mL | first compound 5 µg/mL
[1], partner 0.039 µg/mL | – | – | 0.956 | – | 0.903 | 0.786
[1], partner 0.078 µg/mL | – | – | 0.953 | – | 0.876 | 0.747
[1], partner 0.156 µg/mL | – | – | 0.935 | – | 0.863 | 0.762
[2], partner 0.039 µg/mL | – | – | 0.879 | – | 0.81 | 0.426
[2], partner 0.078 µg/mL | – | – | 0.854 | – | 0.808 | 0.412
[2], partner 0.156 µg/mL | – | – | 0.886 | – | 0.807 | 0.401
[3], partner 0.65 µg/mL | 0.965 | 0.975 | – | 0.697 | – | –
[3], partner 1.3 µg/mL | ≥ 1 | 0.966 | – | 0.708 | – | –
[3], partner 2.6 µg/mL | 0.979 | 0.928 | – | 0.668 | – | –

fitness, [1], one replicate
Details | first compound 1.25 µg/mL | first compound 2.5 µg/mL | first compound 5 µg/mL
partner 0.125 µg/mL | 0.964 | 0.97 | 0.955
partner 0.25 µg/mL | 0.865 | 0.847 | 0.882
partner 0.5 µg/mL | 0.91 | 0.867 | 0.801

Details | Bliss interaction score
[4] | -0.04
[5] | -0.0925
[6] | 0.0936
[7] | 0.0539

Cn1c2cccc(=O)c-2nc2ccccc21 [Pyocyanin] + CN[C@@H]1[C@H](O[C@H]2[C@H](O[C@H]3[C@H](O)[C@@H](O)[C@H](N=C(N)N)[C@@H](O)[C@@H]3N=C(N)N)O[C@@H](C)[C@]2(O)C=O)O[C@@H](CO)[C@H](O)[C@H]1O [Streptomycin]
fitness
Details | partner 1 µg/mL | partner 2 µg/mL | partner 4 µg/mL | partner 8 µg/mL
[1], first compound 1.25 µg/mL | – | 0.938 | 0.765 | –
[1], first compound 2.5 µg/mL | – | 0.929 | 0.879 | –
[1], first compound 5 µg/mL | – | 0.818 | 0.791 | 0.686
[2], first compound 1.25 µg/mL | 0.891 | 0.844 | – | –
[2], first compound 2.5 µg/mL | 0.796 | 0.693 | – | –
[2], first compound 5 µg/mL | 0.427 | 0.308 | 0.253 | –
[3], first compound 0.325 µg/mL | – | ≥ 1 | ≥ 1 | 0.935
[3], first compound 0.65 µg/mL | – | 0.943 | 0.889 | 0.791
[3], first compound 1.3 µg/mL | – | – | 0.734 | 0.592

fitness, [3], one replicate
Details | first compound 0.325 µg/mL | first compound 0.65 µg/mL | first compound 1.3 µg/mL
partner 2 µg/mL | – | – | 0.756
partner 16 µg/mL | 0.649 | 0.61 | 0.475

Details | Bliss interaction score
[4] | 0.474
[5] | 0.109
[6] | -0.0643
[7] | -0.103
